17 compounds from article PMC11281031, “A Machine-Learning-Driven Pathophysiology-Based New Approach Method for the Dose-Dependent Assessment of Hazardous Chemical Mixtures and Experimental Validations” (Toxics, 2024) can be followed below.

What all share (assay type): in vivo
The subject of data set [1] is zebrafish embryos. Kind of data set: Zebrafish-embryo mixture toxicity, mixed chemical phenotype score and interaction. Conditions: with DMSO, max 20 = normal. The protocol: (§1) First, the toxicity of single chemicals in zebrafish embryos is determined. Using the toxicity data of single chemicals as a baseline, we screened mixtures for altered activity and characterized the optimal concentration ratios of components. For chemical treatments, 1000× working stocks are prepared in DMSO. Dechorionated zebrafish embryos, […], are placed in 0.5 mL of fish water (0.3 g/L sea salt) in 24-well plates. The 1000× stock solution of chemicals is diluted to 2× in fish water with 2% DMSO added. Then, 0.5 mL of the 2× diluted chemical solution is added to the 0.5 mL of fish water containing the embryos to achieve a final concentration of 1× compound in 1% DMSO.
Figure 10 Mixed chemical phenotypes and how they are scored. The mixed chemical phenotype score is the sum of the scores for the five individual fish in a well. Two wells were treated per chemical combination, and the scores are averaged for the wells. Scoring was as follows: dead = 0; severely deformed = 1; deformed = 2; slightly deformed = 3; and normal phenotypes = 4.
We tested the top 300 chemical mixtures, as prioritized by AI-CPTM, which were randomly selected and readily purchasable, on zebrafish embryos. […] We then compared the toxicity predictions made by the machine-learning model with the results obtained from the zebrafish assays.
The EC50, indicating the median effective concentration for developmental toxicity, is determined using morphological criteria. Fish are identified by date and well number (Figure 10). In each well containing five fish, the mixed compound phenotype score is the sum of the scores for the individual fish. Two wells are treated per combination, and the scores are averaged across these wells (Supplementary Material S2). Scoring follows this scale: dead = 0; severely deformed = 1; deformed = 2; slightly deformed = 3; normal phenotypes = 4. […] The EC50 and lowest observable effect concentration (LOEC) for binary mixtures are determined by testing a linear concentration series of the first chemical against five concentrations of the second chemical, including a vehicle control.

In data set [2] the test system is zebrafish embryos. Put plainly: Dose-response zebrafish live assay, single chemicals (developmental toxicity). Conditions: for concentration at which embryos were relatively normal / symptoms absent / lowest dose causing significant developmental abnormalities (toxic at): 2 dpf; for lethal concentration: 100% lethality / lethal by. The procedure:
Dose-dependent toxicities in zebrafish embryos were assessed by the lowest dose that caused significant developmental abnormalities 2 days post-fertilization (2 dpf) in a dose-response live assay. […] Starting with Pyraclostrobin, it was identified as toxic at 30 nM. It induced developmental delays in the embryos without visible deformities. […] It appeared relatively normal at 5 µM. This twitching phenotype indicates specific neuronal toxicity. […] These symptoms were absent at lower concentrations (30 µM), highlighting a dosage-sensitive relationship.
as §1
Figure 9 Dose-dependent toxicity assessment of AI-CPTM predicted chemicals (Table 1, Table 2, Table 3 and Table 4) as the lowest dose leading to, what is defined here, as significant developmental abnormalities at 2 days post-fertilization (2 dpf) in a dose-response zebrafish live assay.
We assessed individual chemicals for developmental toxicity, indicating any disruption in embryonic development from 1 to 4 days post-fertilization (dpf). Embryos are exposed to chemicals in their bath water from 1 dpf to 4 dpf, without changing the water during exposure. Initially, chemicals are screened by testing them at a series of concentrations increasing by half-log steps. […] Each embryo is assigned a score reflecting the severity of observed phenotypes, with the average score representing the group. The EC50 for developmental toxicity is defined as a score of five on this teratogenicity scale (Figure 10 and Supplementary Material S2). Once the effective range is identified, the EC50 is determined by testing a linear series of concentrations spanning from non-toxic to toxic levels. For chemicals not toxic at 10 µM, tests are extended up to 200 µM, with those showing no effects at this level considered non-toxic.

The subject of data set [3] is zebrafish embryos. Put plainly: PFOS/PFOA zebrafish-embryo lethality (LD50), sub-lethal effects (EC50) and mixture survival assay. Conditions: for LD50: embryos exposed at 2 dpf for 24 h at 33 °C, average of three experiments; for EC50: sub-lethal adverse effects, exposed at 2 dpf for 24 h at 33 °C. From the text:
The methodology for assessing the toxicity in zebrafish is detailed in our earlier publication. The data presented in Table 3 and Table 4 and Figure 12 show the acute and sub-lethal toxicity of PFOS and PFOA individually and in combination with zebrafish embryos. This initial study offered a comparative insight into their toxic profiles in terms of lethal (LD50) and effective (EC50) concentrations, which are important for measuring their toxic effects. […] These concentrations reflect the exposure of zebrafish embryos to PFOS and PFOA at 2 days post-fertilization (dpf) for one day at a temperature of 33 °C. […] These effects include severe developmental abnormalities, such as bent body axis, edema, cloudy tissue formation, and developmental delays, signaling significant toxicity even at lower concentrations.
We explored further the combined effects of PFOS and PFOA, as shown in Table 4 and Figure 12, to examine how varying concentrations of PFOS affect the LD50 of PFOA in a mixture. The LD50 is the dose at which 50% of the embryos are dead. […] A five dose-response curve for PFOA was tested against three fixed concentrations, 68 µM, 38 µM, and 22 µM of PFOS at 2 dpf for one day at 33 °C. […] Nonetheless, as each experiment is internally controlled, relative toxicity and mixture interactions are accurately detected.
PFOS requires a lower concentration to be lethal and affects development at much lower concentrations compared to PFOA. […] Five concentrations of PFOA were tested to generate the dose-response curves. […] Overall, these experiments support predictions of AI-CPTM toxicity and chemical interaction effects.

The mark [4] stands for this setting: single chemical, tested up to 200 µM.

Where only a bound is given, the exact number is not on record here.

Turning to `CC(C)(C)[C@@H](O)[C@@H](Cc1ccc(Cl)cc1)n1cncn1` (racemic) [Paclobutrazol], the “phenotype score of single chemical (Average / Compound #1 / Compound #2 phenotype score)” value was 17.5 in the data set on zebrafish embryos [1] (50 µM) and 20 in the data set on zebrafish embryos [1] (100 µM). Further, in the data set with zebrafish embryos [2] (single chemical), the “concentration at which embryos were relatively normal / symptoms absent” value is 30000 nM. The “lowest dose causing significant developmental abnormalities (toxic at)” value with zebrafish embryos [2] (setting [4]) worked out at 50 µM.

On to `Oc1c(Br)cc(Br)cc1Br` [2,4,6-Tribromophenol], for which, in the data set with zebrafish embryos [1] (2 µM), the “phenotype score of single chemical (Average / Compound #1 / Compound #2 phenotype score)” value is on record as 14. In addition, the “phenotype score of single chemical (Average phenotype score)” value in the data set on zebrafish embryos [1] (4 µM) stood at 0. In the data set with zebrafish embryos [2] (setting [4]), the “lowest dose causing significant developmental abnormalities (toxic at)” value was found to be 2 µM. The same compound returned a lethal concentration with zebrafish embryos [2] (single chemical) of 10 µM.

For `CC1(C)C(C=C(Cl)Cl)C1C(=O)OC(C#N)c1ccc(F)c(Oc2ccccc2)c1` (stereo not drawn) [Baythroid], in the data set with zebrafish embryos [2] (at 200 µm), the “effect on embryo development (Figure 11)” value was “pronounced deformities”. The “lowest dose causing significant developmental abnormalities (toxic at)” value with zebrafish embryos [2] (setting [4]) worked out at 20 µM.

As to `CCCCC(CC)COC(=O)c1ccccc1C(=O)OCC(CC)CCCC` (stereo not drawn) [Bis-(2-Ethylhexyl) Phthalate], the “effect on embryo development (Figure 11)” value in the data set on zebrafish embryos [2] (at 200 µm) was “pronounced deformities”. Moreover, in the data set with zebrafish embryos [2] (setting [4]), the “lowest dose causing significant developmental abnormalities (toxic at)” value was more than 200 µM.

In the case of `CCCCOCN(C(=O)CCl)c1c(CC)cccc1CC` [Butachlor], in the data set on zebrafish embryos [1] (100 µM), the “phenotype score of single chemical (Average / Compound #1 / Compound #2 phenotype score)” value was found to be 16. In addition, in the data set on zebrafish embryos [1] (200 µM), the “phenotype score of single chemical (Average phenotype score)” value is reported as 0. Moreover, the “effect on embryo development (Figure 11)” value with zebrafish embryos [2] (at 200 µm) is given as “pronounced deformities”. Also, the “concentration at which embryos were relatively normal / symptoms absent” value in the data set on zebrafish embryos [2] (single chemical) was 100000 nM. Further, in the data set on zebrafish embryos [2] (setting [4]), the “lowest dose causing significant developmental abnormalities (toxic at)” value was 200 µM.

Regarding `O=C(OC1CCCCC1)c1ccccc1C(=O)OC1CCCCC1` [Dicyclohexyl Phthalate, Dicyclohexyl Phthalate (DCHP)], in the data set on zebrafish embryos [1] (100 µM), the “phenotype score of single chemical (Average / Compound #1 / Compound #2 phenotype score)” value is 20. The “phenotype score of single chemical (Average phenotype score)” value with zebrafish embryos [1] (200 µM) turned out to be 20. Also, in the data set on zebrafish embryos [2] (at 200 µm), the “effect on embryo development (Figure 11)” value is “marked malformations and growth retardation”. Besides, the “lowest dose causing significant developmental abnormalities (toxic at)” value with zebrafish embryos [2] (setting [4]) turned out to be 200 µM.

Take `CC1(C)C(C(=O)OC(C#N)c2cccc(Oc3ccccc3)c2)C1(C)C` (stereo not drawn) [Fenpropathrin]: the “phenotype score of single chemical (Average / Compound #1 / Compound #2 phenotype score)” value with zebrafish embryos [1] (5 µM) stood at 10. Also, in the data set with zebrafish embryos [1] (10 µM), the “phenotype score of single chemical (Average phenotype score)” value was determined as 0. In addition, in the data set with zebrafish embryos [2] (single chemical), the “concentration at which embryos were relatively normal / symptoms absent” value is 5000 nM. Also, the “lowest dose causing significant developmental abnormalities (toxic at)” value with zebrafish embryos [2] (setting [4]) is given as 10 µM.

In the case of `COCc1cnc(C2=NC(C)(C(C)C)C(=O)N2)c(C(=O)O)c1` (stereo not drawn) [Imazamox], the “effect on embryo development (Figure 11)” value in the data set on zebrafish embryos [2] (at 200 µm) was “marked malformations and growth retardation”. Also, the “lowest dose causing significant developmental abnormalities (toxic at)” value in the data set on zebrafish embryos [2] (setting [4]) was more than 200 µM.

Take `CC(CNCc1ccccc1O)NCc1ccccc1O` (stereo not drawn) [Motor fuel oil, Alpha, alpha’-(1-methylethylenediimino)di-ortho-cresol]: the “phenotype score of single chemical (Average / Compound #1 / Compound #2 phenotype score)” value with zebrafish embryos [1] (2.5 µM) was found to be 16. The “phenotype score of single chemical (Average / Compound #1 / Compound #2 phenotype score)” value in the data set with zebrafish embryos [1] (5 µM) amounted to 6. Also, in the data set on zebrafish embryos [2] (single chemical), the “concentration at which embryos were relatively normal / symptoms absent” value is 1000 nM and the lethal concentration was found to be 10 µM. For the same compound, the “lowest dose causing significant developmental abnormalities (toxic at)” value with zebrafish embryos [2] (setting [4]) was determined as 5 µM.

`O=C(O)C(F)(F)C(F)(F)C(F)(F)C(F)(F)C(F)(F)C(F)(F)C(F)(F)F` [PFOA, Perfluorooctanoic acid (PFOA)]: in the data set with zebrafish embryos [3], the LD50 is given as 187.5 µM and the EC50 stood at 29.5 µM.

Take `O=S(=O)(O)C(F)(F)C(F)(F)C(F)(F)C(F)(F)C(F)(F)C(F)(F)C(F)(F)C(F)(F)F` [PFOS, Perfluorooctane sulfonic acid (PFOS)]: in the data set with zebrafish embryos [3] (68 μM PFOS, 0 μM PFOA), the survival is reported as 100%. In the data set with zebrafish embryos [3], the LD50 worked out at 53 µM and the EC50 amounted to 11 µM.

Turning to `COc1cnc(OC)n2nc(NS(=O)(=O)c3c(OCC(F)F)cccc3C(F)(F)F)nc12` [Penoxsulam], the “effect on embryo development (Figure 11)” value in the data set on zebrafish embryos [2] (at 200 µm) is “moderate deformities”. Further, the “lowest dose causing significant developmental abnormalities (toxic at)” value with zebrafish embryos [2] (setting [4]) was more than 200 µM.

For the compound `COC(=O)N(OC)c1ccccc1COc1ccn(-c2ccc(Cl)cc2)n1` [Pyraclostrobin], the “phenotype score of single chemical (Average / Compound #1 / Compound #2 phenotype score)” value in the data set on zebrafish embryos [1] (0.01 µM) is 20. For the same compound, the “phenotype score of single chemical (Average phenotype score)” value in the data set with zebrafish embryos [1] (0.02 µM) is listed as 20. In addition, in the data set on zebrafish embryos [2] (at 30 nm), the “effect on embryo development (Figure 11)” value was “minimal effects”. Besides, in the data set on zebrafish embryos [2] (at 200 µm), the “effect on embryo development (Figure 11)” value is “significant embryonic damage”. In the data set on zebrafish embryos [2] (single chemical), the “concentration resulting in embryo lysis” value worked out at 100 nM and the “lowest dose causing significant developmental abnormalities (toxic at)” value is 0.03 µM.

With `CC(C)(C)c1ccc(CSc2cnn(C(C)(C)C)c(=O)c2Cl)cc1` [Pyridaben], the “phenotype score of single chemical (Average / Compound #1 / Compound #2 phenotype score)” value with zebrafish embryos [1] (0.05 µM) is on record as 20. In addition, in the data set with zebrafish embryos [1] (0.1 µM), the “phenotype score of single chemical (Average phenotype score)” value is listed as 18.5. Besides, the “effect on embryo development (Figure 11)” value with zebrafish embryos [2] (at 50 nm) is “noticeable developmental delays and morphological abnormalities”. For the same compound, in the data set on zebrafish embryos [2] (single chemical), the “concentration causing developmental stalling at the 8-somite stage” value was found to be 100 nM and the “lowest dose causing significant developmental abnormalities (toxic at)” value worked out at 0.05 µM.

`CC/C(=N\OC/C=C/Cl)C1=C(O)CC(C2CCOCC2)CC1=O` (stereo not drawn) [Tepraloxydim]: the “effect on embryo development (Figure 11)” value in the data set on zebrafish embryos [2] (at 200 µm) is “moderate deformities”. For the same compound, the “lowest dose causing significant developmental abnormalities (toxic at)” value in the data set with zebrafish embryos [2] (setting [4]) is on record as more than 200 µM.

For the compound `CC(C)=CC1C(C(=O)OCN2C(=O)C3=C(CCCC3)C2=O)C1(C)C` (stereo not drawn) [Tetramethrin], in the data set on zebrafish embryos [1] (5 µM), the “phenotype score of single chemical (Average / Compound #1 / Compound #2 phenotype score)” value came to 20. Further, in the data set on zebrafish embryos [1] (10 µM), the “phenotype score of single chemical (Average phenotype score)” value was found to be 15. The “effect on embryo development (Figure 11)” value with zebrafish embryos [2] (at 200 µm) is given as “pronounced deformities”. The “lowest dose causing significant developmental abnormalities (toxic at)” value with zebrafish embryos [2] (setting [4]) is recorded as 5 µM.

For `COc1nc(C)nc(NC(=O)NS(=O)(=O)c2ccccc2OCCCl)n1` [Triasulfuron], the “lowest dose causing significant developmental abnormalities (toxic at)” value with zebrafish embryos [2] (setting [4]) was more than 200 µM.
